The values below come from patent US12150922B1, “Methods of inhibiting cyclooxygenase (COX) using tolterodine” (priority 2023, dated 2024).

The target of one assay is COX-1 (UniProt P05979). It is filed as biochemical. To be noted: conversion of arachidonic acid to prostaglandin; 10 min preincubation at 37° C.; three separate experiments. The text has this:
(§1) The Schrodinger Maestro molecular modeling suite (Schrodinger LLC, New York, USA) was utilized for all stages of virtual screening modeling. QikProp software tools offer a fast, accurate, and user-friendly approach for predicting molecular characteristics. This software evaluates a given molecule's properties and compares them with those of substances present in 95% of commonly prescribed drugs. A series of graded filters is employed to identify potential interactions within the active site of the receptor and the ligand. This process involves constructing a grid with varying field sets that accurately score the ligand poses while simultaneously depicting the structure and attributes of the receptor. COX-1 and COX-2 inhibitor screening assay kits were obtained from Cayman Chemical (Ann Arbor, MI, USA).
(§2) The inhibitory effects of tolterodine on COX-1 and COX-2 were determined using COX inhibitor screening test kits, testing each compound's capacity to inhibit the conversion of arachidonic acid to prostaglandin. In test tubes, 25 mM Tris-HCl, pH 8.0, containing 5 mM EDTA, phenol, and 1 mM hematin was added. Tolterodine was dissolved in DMSO and added in concentrations ranging from […]. […]
(§3) Three separate experiments were used to calculate the IC50 values. The selectivity index was calculated as follows: Selectivity Index (SI)=IC50 COX-1/IC50 COX-2

Another assay deals with T1, COX-2 (Homo sapiens, UniProt P35354).
T1 construct: purchased Cayman Chemical (Ann Arbor, MI, USA)
The assay can be described thus: biochemical.
Excerpt: as §1, §2, §3

Structures are written as SMILES. “And” between values parts separate entries of the source, which are not always exact repeats. Equal values may be shown once.

T1 sequence (P35354 18-604): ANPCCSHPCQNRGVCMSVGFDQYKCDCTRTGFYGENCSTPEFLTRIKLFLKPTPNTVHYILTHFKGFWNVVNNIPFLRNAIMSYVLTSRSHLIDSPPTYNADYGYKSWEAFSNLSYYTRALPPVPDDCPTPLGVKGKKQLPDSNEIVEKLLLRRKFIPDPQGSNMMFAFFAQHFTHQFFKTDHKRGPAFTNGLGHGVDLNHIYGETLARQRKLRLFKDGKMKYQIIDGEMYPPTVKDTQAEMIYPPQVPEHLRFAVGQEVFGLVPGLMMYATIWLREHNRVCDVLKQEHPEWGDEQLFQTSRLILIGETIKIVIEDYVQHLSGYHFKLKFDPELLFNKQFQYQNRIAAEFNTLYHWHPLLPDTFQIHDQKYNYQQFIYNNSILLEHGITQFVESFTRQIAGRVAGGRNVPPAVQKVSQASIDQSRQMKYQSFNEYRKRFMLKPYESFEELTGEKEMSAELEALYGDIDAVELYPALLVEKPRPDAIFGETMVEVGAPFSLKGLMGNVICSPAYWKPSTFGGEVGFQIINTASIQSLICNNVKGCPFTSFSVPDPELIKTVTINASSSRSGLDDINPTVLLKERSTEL
Chain of COX-1 (P05979 whole entry): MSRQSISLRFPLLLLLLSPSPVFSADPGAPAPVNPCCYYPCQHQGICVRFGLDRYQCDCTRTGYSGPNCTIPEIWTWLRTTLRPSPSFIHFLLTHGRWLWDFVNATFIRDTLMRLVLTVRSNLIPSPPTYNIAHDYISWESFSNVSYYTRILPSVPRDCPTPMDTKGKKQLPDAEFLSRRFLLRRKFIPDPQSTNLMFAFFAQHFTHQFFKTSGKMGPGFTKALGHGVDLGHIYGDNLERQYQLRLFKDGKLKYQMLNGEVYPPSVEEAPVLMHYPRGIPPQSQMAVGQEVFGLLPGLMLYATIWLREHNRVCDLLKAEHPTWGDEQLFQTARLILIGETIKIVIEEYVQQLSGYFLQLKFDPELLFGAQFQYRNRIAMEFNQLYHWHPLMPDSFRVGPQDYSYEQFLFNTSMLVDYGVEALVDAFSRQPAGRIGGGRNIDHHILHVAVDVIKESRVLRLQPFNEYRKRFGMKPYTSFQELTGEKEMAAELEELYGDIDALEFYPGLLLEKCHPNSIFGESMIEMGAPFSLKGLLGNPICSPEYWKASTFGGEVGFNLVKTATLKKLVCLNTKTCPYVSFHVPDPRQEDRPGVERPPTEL

In the case of `Cc1ccc(O)c([C@H](CCN(C(C)C)C(C)C)c2ccccc2)c1` [Tolterodine], the IC50 (as a rule, the concentration that gives 50% inhibition) on COX-1 was ~4.53 µM and 4.53 µM; at COX-2 (conversion of arachidonic acid to prostaglandin, 10 min preincubation at 37° C., three separate experiments), ~0.32 µM and 0.32 µM. Moreover, the “SI (Selectivity Index = IC50 COX-1/IC50 COX-2)” value on COX-2 was found to be 14.3.
